Values after ≈ are worked out from the molar mass of the structure shown. Where two headings read alike, the source gives them in different places.
Experiments:
[1] = system: Klebsiella pneumonia (ATCC 43816); assay: MIC, broth microdilution; settings: Klebsiella pneumoniae
ACM1006 acc(6′)-Ib = assay: microbe, parasite or virus in culture; type: cell-based, Acinetobacter baumannii; settings: Acinetobacter baumannii
How it was run: (§1)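 Broth microdilution per CLSI guidelines: compounds serially diluted 2-fold in cation-adjusted Mueller Hinton broth, inoculum 5×10^5 CFU/ml from overnight colonies, 18 hours at 35° C. MIC read by turbidity at 600 nm and confirmed visually.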

mice = assay: Acute toxicity in mice (minimal lethal dose); type: in vivo; settings: IV tail vein, observed 24 hours, lowest dose lethal for at least one mouse
Experimental: The acute toxicity of 44 was compared to that of 45 in mice. Ascending doses of each compound were administered to mice (n=3) IV through the tail vein. […] Acute toxicity was reported as the minimal lethal dose, or MLD, defined as the lowest dose of a compound that is lethal for at least one mouse.

PAM3072 aac(6′)-II = assay: microbe, parasite or virus in culture; type: cell-based, Pseudomonas aeruginosa; settings: Pseudomonas aeruginosa
How it was run: as §1

PAM3073 aac(6′)-I = assay: microbe, parasite or virus in culture; type: cell-based, Pseudomonas aeruginosa; settings: Pseudomonas aeruginosa
How it was run: as §1

ECM6011 aph(3′)-I = assay: microbe, parasite or virus in culture; type: cell-based, Escherichia coli; settings: Escherichia coli
How it was run: (§2)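 Broth microdilution per CLSI M7-A7 in cation-adjusted Mueller Hinton broth, 2-fold serial dilutions, inoculum 5×10^5 CFU/ml from overnight colonies. Incubated 18 hours at 35° C. MIC read as turbidity at 600 nm, confirmed visually.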

ECM6010 ant(2″)-I = assay: microbe, parasite or virus in culture; type: cell-based, Escherichia coli; settings: Escherichia coli
How it was run: as §2

ECM6009 aac(3)-II = assay: microbe, parasite or virus in culture; type: cell-based, Escherichia coli; settings: Escherichia coli
How it was run: as §2

ECM6006 aph(3′)-III = assay: microbe, parasite or virus in culture; type: cell-based, Escherichia coli; settings: Escherichia coli
How it was run: as §2

ACM1005 ATCC 19004 = assay: MIC, broth microdilution; type: cell-based, Acinetobacter baumannii; settings: Acinetobacter baumannii, ATCC19004
How it was run: as §1

[2] = system: Escherichia coli ECM6012 armA; assay: MIC, strains expressing aminoglycoside modifying enzymes; type: cell-based; settings: ECM6012ARMA, read-out: MIC Escherichia coli ECM6012 armA
Experimental: (§3) To compare microbiological activity of the test compounds, minimum inhibitory concentrations (MIC.s) were determined. Antibiotic MICs were obtained using the broth microdilution method according to Clinical and Laboratory Standards Institute (CLSI) approved guidelines (Methods for dilution antimicrobial susceptibility tests for bacteria that grow aerobically; approved standard—7th ed. CLSI document M7-A7. Clinical and Laboratory Standards Institute, Wayne, Pa., incorporated herein by reference in its entirety). Antibiotics were dissolved as specified by CLSI (Performance standards for antimicrobial susceptibility testing; Seventeenth informational supplement. CLSI document M100-S17. Clinical and Laboratory Standards Institute, Wayne, Pa., incorporated herein by reference in its entirety), and were serially diluted 2-fold in cation adjusted Mueller Hinton Broth (CaMHB) at 2× concentration. Bacterial inoculums were prepared in CaMHB by suspension of a colony from an agar plate that was prepared the previous day to obtain a final concentration of 5×10^5CFU/ml. The plates were incubated for 18 hours at 35° C. […] MIC.s were determined by reading the turbidity of plate wells using a SpectraMax Plus384 plate reader (Molecular Devices, Sunnyvale, Calif., USA) at 600 nm and were confirmed by visual inspection.

[3] = system: Escherichia coli ECM6008 aac(3)-I, ant(3″); assay: as above; type: cell-based; settings: read-out: MIC Escherichia coli ECM6008 aac(3)-I, ant(3″)
Experimental: as §3

[4] = system: Pseudomonas aeruginosa pa1062 aac(3)-I; assay: as above; type: cell-based; settings: read-out: MIC Pseudomonas aeruginosa pa1062 aac(3)-I
Experimental: as §3

[5] = system: Providencia stuartii PSM1000 aac(2′); assay: as above; type: cell-based; settings: read-out: MIC Providencia stuartii PSM1000 aac(2′)
Experimental: as §3

[6] = system: Escherichia coli ECM6005 aac(3)-II, aph(3′)-II; assay: as above; type: cell-based; settings: read-out: MIC Escherichia coli ECM6005 aac(3)-II, aph(3′)-II
Experimental: as §3

[7] = system: Escherichia coli ECM6004 aac(2′); assay: as above; type: cell-based; settings: read-out: MIC Escherichia coli ECM6004 aac(2′)
Experimental: as §3

[8] = system: Pseudomonas aeruginosa pa1061 aac(6′) (no efflux); assay: as above; type: cell-based; settings: read-out: MIC Pseudomonas aeruginosa pa1061 aac(6′) (no efflux)
Experimental: as §3

[9] = system: Pseudomonas aeruginosa pa1060 ant(2″); assay: as above; type: cell-based; settings: read-out: MIC Pseudomonas aeruginosa pa1060 ant(2″)
Experimental: as §3

[10] = system: Acinetobacter spp. AB1051 aph(3′)VI; assay: as above; type: cell-based; settings: read-out: MIC Acinetobacter spp. AB1051 aph(3′)VI
Experimental: as §3

[11] = system: Acinetobacter baumannii ACM1008 aac(3)-Ia; assay: as above; type: cell-based; settings: read-out: MIC Acinetobacter baumannii ACM1008 aac(3)-Ia
Experimental: as §3

[12] = system: Escherichia coli EC1003 aac(3)I; assay: as above; type: cell-based; settings: read-out: MIC Escherichia coli EC1003 aac(3)I
Experimental: as §3

[13] = ATCC43816, read-out: Compound MIC on Bacterial Strains: K. pneumonia ATCC 43816
[14] = ATCC43816, read-out: MIC Klebsiella pneumoniae KPM1001 ATCC 43816
[15] = Table 4, read-out: Compound MIC on Bacterial Strains: Acinetobacter baumannii ACM1006 acc(6′)-Ib
[16] = Table 8, read-out: MIC Acinetobacter baumannii ACM1006 aac(6′)-Ib
[17] = Table 5, read-out: Compound MIC on Bacterial Strains: Pseudomonas aeruginosa PAM3072 aac(6′)-II
[18] = Table 8, read-out: MIC Pseudomonas aeruginosa PAM3072 aac(6′)-II or III
[19] = Table 5, read-out: Compound MIC on Bacterial Strains: Pseudomonas aeruginosa PAM3073 aac(6′)-I
[20] = Table 8, read-out: MIC Pseudomonas aeruginosa PAM3073 aac(6′)-I, wt efflux
[21] = read-out: Compound MIC on Bacterial Strains: ECM6011 aph(3′)-I
[22] = read-out: MIC Escherichia coli ECM6011 aph(3′)-I
[23] = read-out: Compound MIC on Bacterial Strains: ECM6010 ant(2″)-I
[24] = read-out: MIC Escherichia coli ECM6010 ant(2″)
[25] = read-out: Compound MIC on Bacterial Strains: ECM6009 aac(3)-II
[26] = read-out: MIC Escherichia coli ECM6009 aac(3)-II, aph(3′)
[27] = read-out: Compound MIC on Bacterial Strains: ECM6006 aph(3′)-III
[28] = read-out: MIC Escherichia coli ECM6006 aph(3′)-III
[29] = Table 4, read-out: Compound MIC on Bacterial Strains: Acinetobacter baumannii ACM1005 ATCC 19004
[30] = Table 7, read-out: MIC Acinetobacter baumannii ACM1005 ATCC 19004

Compound | MIC [1, 13] | MIC [1, 14] | MIC (ACM1006 acc(6′)-Ib; [15]) | MIC (ACM1006 acc(6′)-Ib; [16]) | minimal lethal dose (MLD) (mice) | MIC (PAM3072 aac(6′)-II; [17]) | MIC (PAM3072 aac(6′)-II; [18]) | MIC (PAM3073 aac(6′)-I; [19]) | MIC (PAM3073 aac(6′)-I; [20]) | MIC (ECM6011 aph(3′)-I; [21]) | MIC (ECM6011 aph(3′)-I; [22]) | MIC (ECM6010 ant(2″)-I; [23]) | MIC (ECM6010 ant(2″)-I; [24]) | MIC (ECM6009 aac(3)-II; [25]) | MIC (ECM6009 aac(3)-II; [26]) | MIC (ECM6006 aph(3′)-III; [27]) | MIC (ECM6006 aph(3′)-III; [28]) | MIC (ACM1005 ATCC 19004; [29]) | MIC (ACM1005 ATCC 19004; [30]) | MIC [2] | further results
CN[C@@H]1C(O)[C@@H](OC2C(O)C(O[C@H]3O[C@H](CNC[C@@H](O)CO)CCC3N)[C@@H](N)C[C@H]2NC(=O)[C@@H](O)CN)OCC1(C)O (stereo partly drawn) [Compound 44] | < 1 µg/mL | < 1 µg/mL | 1 to 8 µg/mL (≈ 1.64 to 13.1 µM) | 1 to 8 µg/mL (≈ 1.64 to 13.1 µM) | > 125 mg/kg | > 8 µg/mL | > 8 µg/mL | 1 to 8 µg/mL (≈ 1.64 to 13.1 µM) | 1 to 8 µg/mL (≈ 1.64 to 13.1 µM) | < 1 µg/mL | < 1 µg/mL | < 1 µg/mL | < 1 µg/mL | < 1 µg/mL | < 1 µg/mL | < 1 µg/mL | 1 to 8 µg/mL (≈ 1.64 to 13.1 µM) | 1 to 8 µg/mL (≈ 1.64 to 13.1 µM) | 1 to 8 µg/mL (≈ 1.64 to 13.1 µM) | > 8 µg/mL | MIC [3]: < 1 µg/mL; MIC [4]: > 8 µg/mL; MIC [5]: > 8 µg/mL; MIC [6]: < 1 µg/mL; MIC [7]: < 1 µg/mL; MIC [8]: < 1 µg/mL; MIC [9]: < 1 µg/mL; MIC [10]: 1 to 8 µg/mL (≈ 1.64 to 13.1 µM); MIC [11]: 1 to 8 µg/mL (≈ 1.64 to 13.1 µM); MIC [12]: < 1 µg/mL
CN[C@@H]1[C@@H](O)[C@@H](O[C@@H]2[C@@H](O)[C@H](O[C@H]3O[C@H](CNC[C@H](O)CO)CC[C@H]3N)[C@@H](N)C[C@H]2NC(=O)[C@@H](O)CN)OC[C@]1(C)O [Compound 45, (S)-3-amino-N-((1R,2S,3S,4R,5S)-5-amino-4-((2R,3R,6S)-3-amino-6-(((S)-2,3-dihydroxypropylamino)methyl)tetrahydro-2H-pyran-2-yloxy)-2-((2R,3R,4R,5R)-3,5-dihydroxy-5-methyl-4-(methylamino)tetrahydro-2H-pyran-2-yloxy)-3-hydroxycyclohexyl)-2-hydroxypropanamide] | < 1 µg/mL | < 1 µg/mL | 1 to 8 µg/mL (≈ 1.64 to 13.1 µM) | 1 to 8 µg/mL (≈ 1.64 to 13.1 µM) | 100 mg/kg | > 8 µg/mL | > 8 µg/mL | 1 to 8 µg/mL (≈ 1.64 to 13.1 µM) | 1 to 8 µg/mL (≈ 1.64 to 13.1 µM) | < 1 µg/mL | < 1 µg/mL | < 1 µg/mL | < 1 µg/mL | < 1 µg/mL | < 1 µg/mL | < 1 µg/mL | 1 to 8 µg/mL (≈ 1.64 to 13.1 µM) | 1 to 8 µg/mL (≈ 1.64 to 13.1 µM) | 1 to 8 µg/mL (≈ 1.64 to 13.1 µM) | > 8 µg/mL | MIC [3]: 1 to 8 µg/mL (≈ 1.64 to 13.1 µM); MIC [4]: > 8 µg/mL; MIC [5]: > 8 µg/mL; MIC [6]: < 1 µg/mL; MIC [7]: < 1 µg/mL; MIC [8]: < 1 µg/mL; MIC [9]: 1 to 8 µg/mL (≈ 1.64 to 13.1 µM); MIC [10]: 1 to 8 µg/mL (≈ 1.64 to 13.1 µM); MIC [11]: 1 to 8 µg/mL (≈ 1.64 to 13.1 µM); MIC [12]: < 1 µg/mL

Reference: US8906868B2, “Aminoglycoside derivatives” (Rempex Pharmaceuticals, Inc., priority 2010, dated 2014)
